Data reported in patent US20210275522A1, “PHARMACEUTICAL COMPOSITIONS AND USE THEREOF” (priority 2018, published 2021).
Several values for one entry are separate records, joined by “and”; a condition that tells them apart may be missing. Equal values may be shown once.

Legend:
Type in all cases: in vivo, SCID mice
[1] = test system: human U2932 DLBCL xenograft; experiment: Subcutaneous human U2932 DLBCL xenograft model, combination with dinaciclib (SZ-EF-37-2019); settings: for antitumor activity (in words) / RTV @ D21 (Mean + SEM) / T/C(%)@D21: Compound 1 30 mg/kg, dinaciclib 20 mg/kg; for mRECIST: SD (stable disease): animals with SD / animals in group; for RTV @ D21 (Mean + SEM) / T/C(%)@D21: day 21
Procedure: SKM-1 human Myelodysplastic Syndromes (MDS) were maintained in vitro as suspension cultures in RPMI 1640 medium supplemented with 20% fetal bovine serum, 100 U/mL penicillin and 100 µg/mL streptomycin. Cells were maintained at 37° C. in an atmosphere of 5% CO2 in air and passaged twice weekly. Tumor cells growing in an exponential growth phase were harvested and counted for tumor inoculation. Each mouse was inoculated subcutaneously at the right flank region with OCI-AML-3 tumor cells (5×10^6) in 0.2 mL of PBS with 50% matrigel, SKM-1 tumor cells (3×10^7) in 0.2 mL of PBS with 50% matrigel, U2932 tumor cells (1×10^7) in 0.2 mL of PBS with 50% matrigel, for tumor development. Tumor volumes were measured twice weekly in two dimensions using a caliper, and the volume was expressed in mm^3 using the formula: […] Relative tumor volume (RTV) was calculated using the following formula: […] Synergy score was calculated using the following formula described in Clarke R. Issues in experimental design and endpoint analysis in the study of experimental cytotoxic agents in vivo in breast cancer and other models[J]. Breast Cancer Research & Treatment, 1997, 46(2-3):255-278, which is incorporated by reference in its entirety: Synergy score=(([…]); where A: response to treatment A; B: response to treatment B; C: response to vehicle control; AB: combination of treatment A and B. […] Standard NCI procedures were used to calculate tumor parameters. Percent tumor growth inhibition (% T/C) was calculated as the mean RTV of treated tumors (T) divided by the mean RTV of control tumors (C)×100%. […] To confirm the synergistic antitumor effect between Compound 1 and CDK9 inhibitor in DLBCL, we applied combination therapy with Compound 1 plus CDK9 inhibitor dinaciclib in the same human U2932 DLBCL xenograft model, which was established according to embodiment 2.

[2] = test system: human OCI-AML-3 AML xenograft; experiment: Subcutaneous human OCI-AML-3 AML xenograft model (SZ-EF-42-2018); settings: Compound 1 50 mg/kg q.d×15 d p.o., alvocidib 2.5 mg/kg q.d×15 d i.p.; for RTV@ D15 / T/C(%)@ D15: day 15
Procedure: SKM-1 human Myelodysplastic Syndromes (MDS) were maintained in vitro as suspension cultures in RPMI 1640 medium supplemented with 20% fetal bovine serum, 100 U/mL penicillin and 100 µg/mL streptomycin. Cells were maintained at 37° C. in an atmosphere of 5% CO2 in air and passaged twice weekly. Tumor cells growing in an exponential growth phase were harvested and counted for tumor inoculation. Each mouse was inoculated subcutaneously at the right flank region with OCI-AML-3 tumor cells (5×10^6) in 0.2 mL of PBS with 50% matrigel, SKM-1 tumor cells (3×10^7) in 0.2 mL of PBS with 50% matrigel, U2932 tumor cells (1×10^7) in 0.2 mL of PBS with 50% matrigel, for tumor development. After tumor cell inoculation, the animals were checked daily for morbidity and mortality. At the time of routine monitoring, the animals were checked for any effects of tumor growth and treatments on normal behavior such as mobility, visual estimation of food and water consumption, body weight gain/loss (body weights were measured twice weekly), eye/hair matting and any other abnormal effect. Death and observed clinical signs were recorded on the basis of the numbers of animals within each subset. The entire procedures of dosing as well as tumor and body weight measurement were conducted in a Laminar Flow Cabinet. Tumor volumes were measured twice weekly in two dimensions using a caliper, and the volume was expressed in mm^3 using the formula: Tumor Volume (mm^3)=0.5a×b^2 Relative tumor volume (RTV) was calculated using the following formula: RTV=Vt/V1 Synergy score was calculated using the following formula described in Clarke R. Issues in experimental design and endpoint analysis in the study of experimental cytotoxic agents in vivo in breast cancer and other models[J]. Breast Cancer Research & Treatment, 1997, 46(2-3):255-278, which is incorporated by reference in its entirety: Synergy score=(([…]); where A: response to treatment A; B: response to treatment B; C: response to vehicle control; AB: combination of treatment A and B. Synergy score>1, synergistic; score=1, additive; score<1, antagonistic. Standard NCI procedures were used to calculate tumor parameters. Percent tumor growth inhibition (% T/C) was calculated as the mean RTV of treated tumors (T) divided by the mean RTV of control tumors (C)×100%. […] Alvocidib is a flavonoid alkaloid CDK9 kinase inhibitor, which is the first CDKi under clinical development for the treatment of acute myeloid leukemia. In this study, efficacy of combination treatment with Compound 1 and alvocidib was evaluated in human OCI-AML-3 AML xenograft model (Study No. SZ-EF-42-2018). Dose treatments were started when the mean tumor volume reached 95 mm^3, the dose treatment start day was defined as day 1.

[3] = test system: human SKM-1 MDS xenograft; experiment: Subcutaneous human SKM-1 MDS xenograft model (SZ-EF-59-2018); settings: Compound 1 50 mg/kg q.d×21 d p.o., alvocidib 2.5 mg/kg q.d×21 d i.p.; for RTV@ D21 / T/C(%)@D21: day 21
Procedure: (§1) SKM-1 human Myelodysplastic Syndromes (MDS) were maintained in vitro as suspension cultures in RPMI 1640 medium supplemented with 20% fetal bovine serum, 100 U/mL penicillin and 100 µg/mL streptomycin. Cells were maintained at 37° C. in an atmosphere of 5% CO2 in air and passaged twice weekly. Tumor cells growing in an exponential growth phase were harvested and counted for tumor inoculation. Each mouse was inoculated subcutaneously at the right flank region with OCI-AML-3 tumor cells (5×10^6) in 0.2 mL of PBS with 50% matrigel, SKM-1 tumor cells (3×10^7) in 0.2 mL of PBS with 50% matrigel, U2932 tumor cells (1×10^7) in 0.2 mL of PBS with 50% matrigel, for tumor development. After tumor cell inoculation, the animals were checked daily for morbidity and mortality. At the time of routine monitoring, the animals were checked for any effects of tumor growth and treatments on normal behavior such as mobility, visual estimation of food and water consumption, body weight gain/loss (body weights were measured twice weekly), eye/hair matting and any other abnormal effect. Death and observed clinical signs were recorded on the basis of the numbers of animals within each subset. The entire procedures of dosing as well as tumor and body weight measurement were conducted in a Laminar Flow Cabinet. Tumor volumes were measured twice weekly in two dimensions using a caliper, and the volume was expressed in mm^3 using the formula: Tumor Volume (mm^3)=0.5a×b^2 Relative tumor volume (RTV) was calculated using the following formula: RTV=Vt/V1 Synergy score was calculated using the following formula described in Clarke R. Issues in experimental design and endpoint analysis in the study of experimental cytotoxic agents in vivo in breast cancer and other models[J]. Breast Cancer Research & Treatment, 1997, 46(2-3):255-278, which is incorporated by reference in its entirety: Synergy score=(([…]); where A: response to treatment A; B: response to treatment B; C: response to vehicle control; AB: combination of treatment A and B. Synergy score>1, synergistic; score=1, additive; score<1, antagonistic. Standard NCI procedures were used to calculate tumor parameters. Percent tumor growth inhibition (% T/C) was calculated as the mean RTV of treated tumors (T) divided by the mean RTV of control tumors (C)×100%. […] In this study, efficacy of combination treatment with Compound 1 and alvocidib was evaluated in human SKM-1 MDS xenograft model (Study No. SZ-EF-59-2018). Dose treatments were started when the mean tumor volume reached 125 mm^3, the dose treatment start day was defined as day 1.

[4] = test system: human U2932 DLBCL xenograft; experiment: Subcutaneous human U2932 DLBCL xenograft model, combination with alvocidib (SZ-EF-62-2018); settings: for antitumor activity (in words) / RTV@ D19 / T/C(%)@D19: Compound 1 50 mg/kg q.d×19 d p.o., alvocidib 2.5 mg/kg q.d×7 d and q.w×2 w i.p.; for RTV@ D19 / T/C(%)@D19: day 19
Procedure: as §1, with “U2932 DLBCL” for “SKM-1 MDS”, “SZ-EF-62-2018).” for “SZ-EF-59-2018).”

| Compound | antitumor activity (in words) [1] | mRECIST: PD (progressive disease) ([1]; animals with PD / animals in group) | mRECIST: SD (stable disease) [1] | RTV @ D21 (Mean + SEM) [1] | T/C(%)@D21 [1] | antitumor activity (in words) [2] | RTV@ D15 [2] | T/C(%)@ D15 [2] | antitumor activity (in words) [3] | RTV@ D21 [3] | T/C(%)@D21 [3] | antitumor activity (in words) [4] | RTV@ D19 [4] | T/C(%)@D19 [4] | T/C(%)@D19 ([4]; listed as alvocidib) | occurrence of CR or PR ([4]; single arm) |
| --- | --- | --- | --- | --- | --- | --- | --- | --- | --- | --- | --- | --- | --- | --- | --- | --- |
| CCc1cnn2c(NCc3ccc[n+]([O-])c3)cc(N3CCCC[C@H]3CCO)nc12 [Dinaciclib, dinaciclib] | no antitumor activity | 2/5 | 3/5 | 3.74 ± 0.58 | 71.55% | – | – | – | – | – | – | – | – | – | – | – |
| CN1CC[C@H](c2c(O)cc(O)c3c(=O)cc(-c4ccccc4Cl)oc23)[C@H](O)C1 [Alvocidib, alvocidib] | – | – | – | – | – | moderate antitumor activity | 14.0 ± 1.5 | 58.8% | no antitumor activity | 17.2 ± 2.1 | 78.5% | antitumor activity | 1.19 ± 0.27 | 25.2% | 30.9% | no CR or PR |
| O=C(NS(=O)(=O)c1ccc(NC[C@H]2COCCO2)c([N+](=O)[O-])c1)c1ccc(N2CCN(CC3=C(c4ccc(Cl)cc4)CC4(CCC4)CC3)CC2)cc1Oc1cnc2[nH]ccc2c1 [Compound 1, (S)—N-((4-(((1,4-dioxan-2-yl)methyl)amino)-3-nitrophenyl)sulfonyl)-2-((1H-pyrrolo[2,3-b]pyridin-5-yl)oxy)-4-(4-((6-(4-chlorophenyl)spiro[3.5]non-6-en-7-yl)methyl)piperazin-1-yl)benzamide] | moderate antitumor activity | – | 5/5 SD | 2.79 ± 0.22 | 53.26% | no antitumor activity | 28.6 ± 2.3 | 120.2% | moderate antitumor activity | 14.7 ± 1.5 | 68.3% and 67.3% | antitumor activity | 1.46 ± 0.17 | 30.9% | – | – |
